According to patent publication US6630120B1, “Agents to increase the uptake of pharmaceuticals and diagnostic substances into solid tumors” (priority 1999, dated 2003):
Where two headings read alike, the source gives them in different places.

What was measured:
[1] = tested on: implanted tumor and lung; assay: Retention of 14C-carboplatin in solid tumors and in lung; format: in vivo, rat; conditions: FIG. 8
Experimental: The carboplatin was administered two minutes into a five minute Cereport™ infusion.

[2] = tested on: MAT B-III metastatic lung tumors; assay: Animal survival with MAT B-III metastatic lung tumors after carboplatin and Cereport; format: in vivo, rat; conditions: FIG. 13
Experimental: MAT B-III cells were introduced into the lungs of 12 female F-344 Fisher rats by intrajugular injections of either 1×10^5 or 1×10^6 cells in 200 μl suspensions. The cells and animals were maintained and handled as described in Example 1. At various times following the injections, the number of surface tumor colonies on the lungs was assessed. Tumors were visually counted by injecting India ink into the trachea of the animals.
Finally, the effects of the administration of carboplatin and Cereport™ on the survival of animals who had been subjected to the implantation of MAT B-III metastatic lung surface tumors was assessed. In this study, 1×10^6 MAT B-III cells as a 200 μl suspension were implanted by intrajugular injection in 54 male Fischer rats. Sixteen days later, indwelling cannulae were inserted in the previously implanted jugular vein. On days 16 and 23, the animals received a continuous infusion of 5 mg/kg of carboplatin over a 15 minute period. Immediately following the 15 minute carboplatin infusion, the animals received a 10 minute continuous infusion of either saline or Cereport (1.5 μg/kg). The survival rates for the animals were then monitored.

[3] = tested on: MAT B (III) rat mammary adenocarcinoma tumor implanted in the flank
Experimental: A series of studies were carried out on rat hosts in which suspended tumor cells had been subcutaneously implanted in the flank of the animal to create a solid tumor in situ. The effects of the administration of Cereport™ on the incorporation of ^14C-carboplatin into the tumor were evaluated.
Male Fischer rats (170-220 g; Taconic Farms, Germantown, N.Y.) were used in these studies. Animals were housed in pairs in polypropylene cages with free access to food and water. The vivarium was maintained on a 12 h light: 12 h dark cycle with a room temperature of 22±1° C. and relative humidity level of 50±5%.
The MAT B (III) cell line (ATCC CRL-1666), a rat ascites mammary adenocarcinoma, was used to produce peripheral tumors upon implantation in rats. Cells were grown and maintained at 37° C. in a 95% air/5% CO2 humidified atmosphere using McCoy's medium 5A (GIBCO) supplemented with 20 mM HEPES, 1/2X Antibody-Antimycotic, and 10% heat-inactivated Fetal Bovine Serum.
Immediately prior to implantation, MAT B-III cells were suspended in 1.2% methyl cellulose at a density of 5×10^6/ml. 200 μl of this suspension (1×10^6 cells) was injected subcutaneously into the flank of each animal using a 22G needle.
One week after tumor implantation, and under urethane anesthesia (1.8 g/kg; i.p.), cannulae (PE50, Clay Adams, Bectin Dickinson, Sparks, Md.) were placed in the jugular vein for drug administration and both femoral arteries for the measurement of physiological parameters.
Cereport™ (RMP-7, Alkermes, Inc., Cambridge, Mass.) and ^14C-carboplatin or -dextran (SA=144 μCi/mg and 1.08 μCi/mg respectively) were dissolved in sterile 0.9% saline and infused intravenously using a syringe pump at a rate of 0.05 ml/min over the entire administration period. Using the human clinical protocol as a basis, ^14C-carboplatin or dextran (100 μCi/kg) was infused for 15 minutes followed immediately by a 10 minute infusion of Cereport™. Throughout the experiment, body temperature was maintained normothermic (37.0±1.0° C.) and arterial blood gases, pH, and blood pressure were monitored. Animals with physiological values outside the normal ranges were not used.
At the end of the drug administration protocol, rats were sacrificed and the peripheral tumor was rapidly removed. A 1-2 mm thick slice was cut from the center of tumor. The slice was then divided into two equal parts comprising the center of the dissected piece (inner tumor) and the outside edge (outer tumor). Each tumor sample was weighed and placed into a scintillation vial and the amount of radioactivity (nCi/g) was computed for each region using scintillation counts as a measure of the radioactivity.

[4] = tested on: implanted tumor; conditions: FIG. 14; Cereport infusion for 10 minutes at 1 μg/kg
From the text: Interstitial fluid pressure is a severe impediment for administered substances into tumor interstitial spaces from the bloodstream.

[5] = tested on: Walker 256 tumor; conditions: FIG. 9; male Wistar rats; 15 min carboplatin then 10 min Cereport 1.0 μg/kg
Experimental: Walker 256 cells (ATCC CCL-38) (1×10^7) were implanted into the subcutaneous space of the rear flank of male Wistar rats to create a solid tumor in situ in the same manner as previously described for the MAT B-III cells. Eight days later, the animals received a 15 minute i.v. infusion of ^14C-carboplatin (100 μCi/kg) followed immediately by a 10 minute infusion of either saline or Cereport™ at 1.0 μg/kg. Following the saline or Cereport™ infusion, the tumor was rapidly removed and dissected into inner and outer regions. The amount of radioactivity of each tumor region was determined by scintillation counts.

[6] = tested on: implanted tumor and various organs; conditions: FIG. 7; Cereport 1 μg/kg; carboplatin bolus two minutes into five minute Cereport infusion
Experimental: The carboplatin was administered as a bolus two minutes into a five minute Cereport™ infusion.

[7] = tested on: MAT B-III tumor implanted into the liver; conditions: FIG. 6
Experimental: MAT B-III cells (1×10^6) were implanted directly into the liver of male Fischer rats using a 25G needle and 1 ml tuberculin syringe. Fourteen days later, the animals received a 15 minute i.v. infusion of ^14C-carboplatin (100 μCi/kg) followed immediately by a 10 minute infusion of either saline or Cereport™ at 1.0 μg/kg. Following the saline or Cereport™ infusion, the liver was rapidly removed. The tumor was dissected free of the surrounding liver tissue and divided into inner and outer regions. A 1 mm strip of liver that immediately surrounded the tumor (inner ring) and the adjacent 1 mm strip of liver (outer ring) were also removed and assayed. In addition, an equivalent strip of liver from the untreated lobe, was removed and assayed. This liver strip served as a control.

[8] = tested on: MAT B-III tumor in rear flank or mammary fat pads; conditions: FIG. 5; female Fischer rats; 15 min carboplatin then 10 min Cereport 1.0 μg/kg
Experimental: MAT B-III cells (1×10^6) were implanted in two anatomically distinct sites in female Fischer rats. The tumor cells were implanted into either the subcutaneous space of the rear flank or orthotopically into mammary fat pads. Seven days later, the animals received a 15 minute i.v. infusion of ^14C-Carboplatin (100 μCi/kg) followed immediately by a 10 minute infusion of either saline or Cereport™ at 1.0 μg/kg. Following the saline or Cereport™ infusion, the tumor was rapidly removed and dissected into inner and outer regions. The amount of radioactivity of each tumor region was determined by scintillation counts.

[9] = tested on: implanted tumor; conditions: FIG. 10
Experimental: In some instances, Cereport™ is administered in addition to carboplatin. The carboplatin was infused for 15-minutes followed immediately by a 10 minute infusion of Cereport™ at 1.5 μg/kg.

[10] = target: angiotensin converting enzyme (ACE) (Homo sapiens, UniProt P12821); conditions: general statement, no method given; cited from earlier work
[11] = eighth day, carboplatin plus Cereport 1.5 μg/kg

Sequence of angiotensin converting enzyme (ACE) (P12821 30-1306, species assumed): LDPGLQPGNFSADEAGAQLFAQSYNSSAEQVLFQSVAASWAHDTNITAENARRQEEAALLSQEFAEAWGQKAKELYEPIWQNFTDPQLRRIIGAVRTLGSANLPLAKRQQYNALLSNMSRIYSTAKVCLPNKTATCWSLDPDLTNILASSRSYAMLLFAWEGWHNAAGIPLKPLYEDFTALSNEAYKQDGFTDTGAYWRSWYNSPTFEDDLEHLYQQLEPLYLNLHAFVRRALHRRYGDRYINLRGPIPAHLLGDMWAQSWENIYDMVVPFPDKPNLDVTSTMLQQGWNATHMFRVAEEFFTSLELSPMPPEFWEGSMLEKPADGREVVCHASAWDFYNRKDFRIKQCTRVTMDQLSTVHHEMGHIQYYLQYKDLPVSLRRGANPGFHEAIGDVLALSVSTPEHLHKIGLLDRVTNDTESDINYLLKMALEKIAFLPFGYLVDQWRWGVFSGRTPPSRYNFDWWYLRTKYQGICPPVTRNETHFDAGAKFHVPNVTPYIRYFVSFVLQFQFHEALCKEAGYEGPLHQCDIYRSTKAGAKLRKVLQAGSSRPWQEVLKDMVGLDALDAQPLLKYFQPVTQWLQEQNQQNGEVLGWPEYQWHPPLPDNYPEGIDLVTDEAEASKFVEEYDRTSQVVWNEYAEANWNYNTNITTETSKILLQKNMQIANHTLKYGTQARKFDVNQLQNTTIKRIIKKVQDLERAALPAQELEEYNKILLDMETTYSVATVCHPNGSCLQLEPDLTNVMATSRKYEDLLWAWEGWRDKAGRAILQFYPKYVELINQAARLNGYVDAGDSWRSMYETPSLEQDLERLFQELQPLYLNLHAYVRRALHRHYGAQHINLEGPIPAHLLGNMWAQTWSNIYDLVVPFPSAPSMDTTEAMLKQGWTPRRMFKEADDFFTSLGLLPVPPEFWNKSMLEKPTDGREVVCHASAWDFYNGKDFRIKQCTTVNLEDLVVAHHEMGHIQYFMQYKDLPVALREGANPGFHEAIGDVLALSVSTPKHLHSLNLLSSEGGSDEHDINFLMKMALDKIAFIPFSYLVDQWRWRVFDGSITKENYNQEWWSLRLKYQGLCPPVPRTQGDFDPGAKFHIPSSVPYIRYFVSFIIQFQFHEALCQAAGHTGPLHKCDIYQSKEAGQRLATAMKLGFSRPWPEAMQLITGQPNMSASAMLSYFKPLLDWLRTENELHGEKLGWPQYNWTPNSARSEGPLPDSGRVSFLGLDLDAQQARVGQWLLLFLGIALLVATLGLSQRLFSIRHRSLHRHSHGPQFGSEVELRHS

Compound: N.N.O=C([O-])C1(C(=O)[O-])CCC1.[Pt+2] [carboplatin]
- retention of carboplatin in tumor tissue ([1]; after Cereport administration, carboplatin two minutes into five minute Cereport infusion): at least 90 minutes
- retention of carboplatin in lung ([1]; after the initial uptake following Cereport administration): not retained
- prolongation of survival versus no carboplatin ([2]; carboplatin 5 mg/kg by itself (followed by saline) on days 16 and 23): approximately 10 days

Compound: arginine-proline-hydroxyproline-glycine-thienylalanine-serine-proline-4-Me-tyrosineψ(CH2NH)arginine [Cereport™]
- carboplatin uptake into inner tumor and outer tumor ([3]; FIG. 1, carboplatin bolus two minutes into a ten minute Cereport infusion, three Cereport infusion amounts, vs no Cereport): significantly taken up
- carboplatin uptake into inner tumor and outer tumor ([3]; FIG. 2, carboplatin bolus two minutes into a five minute Cereport infusion, Cereport 0.5 μg/kg): not significantly taken up
- carboplatin uptake into inner tumor and outer tumor ([3]; FIG. 2, carboplatin bolus two minutes into a five minute Cereport infusion, Cereport 0.75 μg/kg): significantly taken up
- carboplatin uptake into inner tumor and outer tumor ([3]; FIG. 2, carboplatin bolus two minutes into a five minute Cereport infusion, Cereport 1.0 μg/kg): significantly taken up
- carboplatin uptake into inner tumor and outer tumor ([3]; FIG. 2, carboplatin bolus two minutes into a five minute Cereport infusion, Cereport 1.75 μg/kg): significantly taken up
- carboplatin uptake into inner tumor and outer tumor ([3]; FIG. 2, carboplatin bolus two minutes into a five minute Cereport infusion, Cereport 2.5 μg/kg): significantly taken up
- carboplatin uptake into inner tumor and outer tumor ([3]; FIG. 2, carboplatin bolus two minutes into a five minute Cereport infusion, Cereport 5.0 μg/kg): not significantly taken up
- carboplatin uptake into inner tumor and outer tumor ([3]; FIG. 3, carboplatin infused 15 minutes prior to Cereport, Cereport 0.36 μg/kg): possible exception
- carboplatin uptake into inner tumor and outer tumor ([3]; FIG. 3, carboplatin infused 15 minutes prior to Cereport, all Cereport doses other than 0.36 μg/kg): significantly taken up
- dextran (MW 70 kDa) uptake into inner tumor and outer tumor ([3]; FIG. 4, dextran infused 15 minutes prior to Cereport, three Cereport infusion amounts, vs no Cereport): significantly taken up
- decrease of interstitial fluid pressure in implanted tumors [4]: up to 40%
- carboplatin uptake into inner and outer region of Walker 256 tumor [5]: significantly taken up
- carboplatin uptake in tumor tissue compared with heart, lung and liver [6]: far surpasses
- carboplatin uptake into heart, lung and liver [6]: some uptake
- carboplatin uptake into tumor implanted in the liver ([7]; 15 min carboplatin then 10 min Cereport 1.0 μg/kg): significantly taken up
- carboplatin uptake into liver tissue adjacent to the tumor ([7]; inner and outer ring liver strips, Cereport 1.0 μg/kg): does not have a significant effect
- carboplatin uptake into control strip of liver ([7]; strip from untreated lobe, Cereport 1.0 μg/kg): does not have a significant effect
- carboplatin uptake into implanted tumor located in the flank [8]: significantly taken up
- carboplatin uptake into implanted tumor located in the mammary pad [8]: significantly taken up
- regression of the implanted tumor in comparison to carboplatin alone ([9]; 15 min carboplatin then 10 min Cereport 1.5 μg/kg): markedly cause regression
- tumor size relative to size if Cereport had not been administered with the carboplatin [9, 11]: approximately one half
- tumor size relative to size if no carboplatin had been administered [9, 11]: approximately one third
- additional extension of survival profile beyond carboplatin alone ([2]; carboplatin 5 mg/kg followed by Cereport 1.5 μg/kg on days 16 and 23): approximately 10 days
- degradation by angiotensin converting enzyme (ACE) [10]: not significantly degraded
